Reference: patent publication US7416848B2, “DNA encoding SNORF25 receptor” (H. Lundbeck A/S, priority 1999, dated 2008)

Columns and labels:
SNORF25 receptor = target: T1, SNORF25 receptor (UniProt Q7TQN8); experiment: cAMP release in Cos-7 cells transiently transfected with SNORF25; format: cell-based; conditions: SNORF25 transiently transfected Cos-7 cells (FIG. 8)
T1 construct: Emax of cAMP response
T1 sequence (Q7TQN8 1-468): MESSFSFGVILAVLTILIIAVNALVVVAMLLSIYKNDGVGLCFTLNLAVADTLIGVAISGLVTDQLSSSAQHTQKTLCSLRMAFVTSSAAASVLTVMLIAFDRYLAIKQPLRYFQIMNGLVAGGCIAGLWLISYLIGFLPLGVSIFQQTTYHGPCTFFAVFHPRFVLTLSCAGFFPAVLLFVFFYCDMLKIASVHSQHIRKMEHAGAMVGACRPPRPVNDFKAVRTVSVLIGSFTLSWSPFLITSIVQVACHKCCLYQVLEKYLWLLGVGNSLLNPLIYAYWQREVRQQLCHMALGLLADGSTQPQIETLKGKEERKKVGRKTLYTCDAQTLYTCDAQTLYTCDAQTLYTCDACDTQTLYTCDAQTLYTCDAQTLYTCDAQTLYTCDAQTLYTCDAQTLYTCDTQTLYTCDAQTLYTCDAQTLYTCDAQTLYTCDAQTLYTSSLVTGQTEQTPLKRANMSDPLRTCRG
Description: COS-7 cells are grown on 150 mm plates in DMEM with supplements (Dulbecco's Modified Eagle Medium with 10% bovine calf serum, 4 mM glutamine, 100 units/ml penicillin/100 μg/ml streptomycin) at 37° C., 5% CO2. Stock plates of COS-7 cells are trypsinized and split 1:6 every 3–4 days.
(§1) A typical protocol for the electroporation method as applied to Cos-7 cells is described as follows. Cells to be used for transfection are split 24 hours prior to the transfection to provide flasks which are subconfluent at the time of transfection. The cells are harvested by trypsinization resuspended in their growth media and counted. 5×10^6 cells are suspended in 300 μl of DMEM and placed into an electroporation cuvette. 8 μg of receptor DNA plus 8 μg of any additional DNA needed (e.g. G protein expression vector, reporter construct, antibiotic resistance marker, mock vector, etc.) is added to the cell suspension, the cuvette is placed into a BioRad Gene Pulser and subjected to an electrical pulse (Gene Pulser settings: 0.25 kV voltage, 950 μF capacitance). […]
(§2) The receptor-mediated stimulation or inhibition of cyclic AMP (cAMP) formation may be assayed in cells expressing the receptors. […] The plates are stored at 4° C. for 15 min, and the cAMP content in the stopping solution is measured by radioimmunoassay. Radioactivity may be quantified using a gamma counter equipped with data reduction software. […]

serotonin 5-HT6 receptor = target: T2, serotonin 5-HT6 receptor (Homo sapiens, UniProt P50406); experiment: cAMP in Cos-7 cells transfected with serotonin 5-HT6 receptor; format: cell-based; conditions: 10 μM, serotonin 5-HT6 (FIG. 7)
T2 construct: expressed in transfected cells; host or cells: Cos-7 cells
Description: as §1, with “capacitance). Following the pulse, 800 μl of complete DMEM is added to each cuvette and the suspension transferred to a sterile tube. Complete medium is added to each tube to bring the final cell concentration to 1×10^5 cells/100 μl.” for “capacitance).”
as §2

dopamine D5 receptor = target: T3, dopamine D5 receptor (Homo sapiens, UniProt P21918); experiment: cAMP in Cos-7 cells transfected with dopamine D5 receptor; format: cell-based; conditions: 10 μM, dopamine D5 (FIG. 7)
T3 construct: expressed in transfected cells; host or cells: Cos-7 cells
Description: as §1, with “capacitance). Following the pulse, 800 μl of complete DMEM is added to each cuvette and the suspension transferred to a sterile tube. Complete medium is added to each tube to bring the final cell concentration to 1×10^5 cells/100 μl.” for “capacitance).”
as §2

[1] = system: control (CFTR alone) oocytes; experiment: CFTR Cl- currents in control oocytes injected with only CFTR mRNA; format: cell-based, Xenopus laevis; conditions: 10 μM
[2] = system: mock-transfected CHO cells; experiment: cAMP and IP release in mock-transfected CHO cells; format: cell-based, Chinese hamster
Description: CHO cells are grown on 150 mm plates in HAM's F-12 medium with supplements (10% bovine calf serum, 4 mM L-glutamine and 100 units/ml penicillin/100 μg/ml streptomycin) at 37° C., 5% CO2. Stock plates of CHO cells are trypsinized and split 1:8 every 3–4 days.
as §1, §2

T2 sequence (P50406 whole entry): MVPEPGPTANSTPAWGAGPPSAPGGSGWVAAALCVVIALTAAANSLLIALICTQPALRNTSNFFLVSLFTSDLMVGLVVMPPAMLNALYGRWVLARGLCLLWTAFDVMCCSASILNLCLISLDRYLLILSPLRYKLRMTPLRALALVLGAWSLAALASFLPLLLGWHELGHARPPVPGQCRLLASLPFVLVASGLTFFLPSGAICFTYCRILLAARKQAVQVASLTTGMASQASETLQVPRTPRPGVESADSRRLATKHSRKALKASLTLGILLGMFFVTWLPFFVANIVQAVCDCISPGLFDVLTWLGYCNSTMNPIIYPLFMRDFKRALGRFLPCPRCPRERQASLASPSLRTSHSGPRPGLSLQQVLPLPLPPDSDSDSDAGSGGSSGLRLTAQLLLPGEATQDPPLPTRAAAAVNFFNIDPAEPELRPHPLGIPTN
T3 sequence (P21918 whole entry): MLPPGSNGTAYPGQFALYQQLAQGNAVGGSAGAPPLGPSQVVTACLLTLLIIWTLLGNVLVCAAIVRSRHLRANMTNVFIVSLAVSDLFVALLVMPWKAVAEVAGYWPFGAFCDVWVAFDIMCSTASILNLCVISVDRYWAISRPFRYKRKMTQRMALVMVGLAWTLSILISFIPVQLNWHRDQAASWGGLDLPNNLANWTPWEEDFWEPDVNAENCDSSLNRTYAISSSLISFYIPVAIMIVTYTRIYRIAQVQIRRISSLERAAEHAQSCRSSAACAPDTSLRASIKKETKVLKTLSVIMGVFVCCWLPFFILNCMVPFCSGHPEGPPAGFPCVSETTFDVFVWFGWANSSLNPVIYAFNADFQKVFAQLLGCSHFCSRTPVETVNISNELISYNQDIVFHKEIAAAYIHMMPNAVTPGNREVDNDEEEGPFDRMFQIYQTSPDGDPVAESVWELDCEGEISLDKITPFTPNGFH

Emax of cAMP response (SNORF25 receptor): 200–300%
cAMP response (serotonin 5-HT6 receptor): no response
cAMP response (dopamine D5 receptor): no response
Compound: CC1=C(/C=C/C(C)=C/C=C/C(C)=C/C(=O)O)C(C)(C)CCC1 [ATRA, all-trans-retinoic acid]
current response in oocytes injected with only CFTR mRNA [1]: no such current was observed
cAMP and IP release in mock-transfected CHO cells [2]: without affecting these parameters
